Reference: patent US6939569B1, “Medical device having anti-infective and contraceptive properties” (Oxibio, Inc., priority 1998, dated 2005)

Tests used:
[1] = system: C. albicans
[2] = system: C. albicans (ATCC 66027); experiment: Microbicidal activity of iodate/iodide silicone tablet formulations in inoculated BHI, pH 4.0; type: cell-based; details: together with iodate threshold
Method: Experiments were performed to optimize formulations used in fabricating the inventive device formulated with silicone elastomer. […] The polymer was allowed to cure with dibutyl tin dilaurate catalyst additions, and then devices were prepared (0.6 cm diameter 0.3 mm thick) using “hole punch” tablets from the disc shaped device to test for microbicidal activity using C. albicans inoculated BHI. […] Tablets obtained from the fabricated device were suspended in the inoculum at 1 tablet/ml. At varying intervals, aliquots of the inoculum, incubated at 35° C. in air, were subcultured to sheep blood agar plates and incubated for an additional 24 hours at 35° C. in air to determine the effect of the varying formulations on the C. albicans inoculums.

Row | Structure (SMILES) | elemental iodine concentrations required to affect microbial killing [1] [%] | critical media concentration of iodide necessary to effect C. albicans killing [2] [mM]
1 | II [elemental iodine] | < 0.01 | 
2 | I [iodide] |  | ≥ 0.5
